Drawing on PubChem BioAssay (NCI), this text covers GI50 and TGI for 7 compounds.

Test systems include CCRF-CEM leukemia; SNB-19 CNS; HCC-2998 colon; HCT-116 colon; NCI-H23 lung; UACC-62 melanoma; UO-31 renal; CAKI-1 renal; BT-549 breast; RPMI-8226 leukemia.
What all share (assay): DTP human tumour cell line panel, 48 h

SMILES strings stand for the structures. “And” between values parts separate entries of the source, which are not always exact repeats. Identical values can stand only once.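 Tested at 5 concentrations; 48 h exposure; 96-well plates; endpoints linearly interpolated, else capped at highest concentration. The concentration for 50% growth inhibition is given as GI50. The concentration for full growth arrest is given as TGI.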

Usually GI50 stands for the concentration at which growth is held to half of that of the control. For orientation: TGI means the concentration at which net growth stops. Read a low TGI as greater sensitivity of the cells. Regarding `N#Cc1cnn(C(=O)c2nn(-c3ccc(Cl)cc3)cc2O)c1N`, the GI50 in the assay with CCRF-CEM leukemia was 0.279 µM; in the assay with SNB-19 CNS it was 0.443 µM; with HCC-2998 colon, 0.623 µM; in the assay on HCT-116 colon, 0.26 µM; in the assay with NCI-H23 lung, 0.371 µM; in the assay with UACC-62 melanoma, 0.303 µM. Also, the GI50 is 0.292 µM with UO-31 renal, 0.259 µM with CAKI-1 renal, 0.287 µM in the assay on BT-549 breast and 0.21 µM with RPMI-8226 leukemia. Also, the concentration for total growth inhibition (TGI) with CCRF-CEM leukemia was 4.03 µM; with SNB-19 CNS, greater than 60.5 µM; in the assay with HCC-2998 colon, 18 µM; in the assay with HCT-116 colon, 10.9 µM; in the assay with NCI-H23 lung it was 15.1 µM; with UACC-62 melanoma, 2.22 µM. The concentration for total growth inhibition (TGI) was 5.81 µM in the assay on UO-31 renal, 1.47 µM with CAKI-1 renal, 7.17 µM in the assay with BT-549 breast and 0.657 µM with RPMI-8226 leukemia.
In the case of `C=C(CN1CCN(c2cc(C(F)(F)F)cc(C(F)(F)F)c2)CC1)c1ccc(C(=O)Nc2ccccc2N)cc1`, the GI50 with CCRF-CEM leukemia was 1.49 µM; with SNB-19 CNS it was 14 µM; in the assay with HCC-2998 colon, 4.28 µM; with HCT-116 colon, 3.67 µM; in the assay on NCI-H23 lung, 14.2 µM; with UACC-62 melanoma, 4.21 µM. Further, the GI50 in the assay with UO-31 renal is 5.57 µM; with CAKI-1 renal it was 2.81 µM; with BT-549 breast it was 5.04 µM; with RPMI-8226 leukemia it was 1.65 µM. The TGI is 6.51 µM with CCRF-CEM leukemia; greater than 100 µM with SNB-19 CNS; 26.4 µM in the assay on HCC-2998 colon; greater than 100 µM in the assay with HCT-116 colon; 72.1 µM in the assay on NCI-H23 lung; greater than 100 µM in the assay with UACC-62 melanoma. Also, the total growth inhibition concentration (TGI) in the assay on UO-31 renal was greater than 100 µM; in the assay on CAKI-1 renal, 42.3 µM; with BT-549 breast, 24.6 µM; in the assay with RPMI-8226 leukemia, 4.22 µM.
Turning to `COc1cc(C2c3cc4c(cc3[C@@H](Nc3ccc(F)cc3)C3COC(=O)[C@H]23)OCO4)cc(OC)c1O` (some centres not stated), the 50% growth inhibitory concentration (GI50) was 0.201 µM and 0.347 µM with CCRF-CEM leukemia; 0.569 µM with SNB-19 CNS; 0.386 µM in the assay on NCI-H23 lung; 0.941 µM in the assay with UACC-62 melanoma; 0.753 µM in the assay on UO-31 renal; 0.29 µM with CAKI-1 renal. Moreover, the GI50 with RPMI-8226 leukemia is 0.531 µM. Also, the TGI amounted to 19.6 µM in the assay on CCRF-CEM leukemia; 33.9 µM in the assay with SNB-19 CNS; 8.96 µM in the assay with HCC-2998 colon; 22.3 µM with HCT-116 colon; 7.56 µM in the assay on NCI-H23 lung; 7.78 µM with UACC-62 melanoma. The concentration for total growth inhibition (TGI) in the assay with UO-31 renal was 8.72 µM; with CAKI-1 renal, 4.68 µM; in the assay with BT-549 breast, 8.39 µM; in the assay on RPMI-8226 leukemia it was 17.1 µM.
As to `O=C(NCCN1CCOCC1)c1cc2c(Oc3ccc(NC(=O)C4(C(=O)Nc5ccc(F)cc5)CC4)cc3)ccnc2[nH]1`, the GI50 with CCRF-CEM leukemia is 11 µM; with SNB-19 CNS it was 14.2 µM; in the assay on HCC-2998 colon it was 15.3 µM; in the assay with HCT-116 colon, 8.78 µM; in the assay on NCI-H23 lung, 1.59 µM; in the assay on UACC-62 melanoma, 4.26 µM. Further, the GI50 is 1.15 µM in the assay with UO-31 renal, 13.7 µM with CAKI-1 renal, 7.85 µM with BT-549 breast and 9.45 µM in the assay with RPMI-8226 leukemia. Also, the concentration for total growth inhibition (TGI) in the assay on CCRF-CEM leukemia was greater than 100 µM; with SNB-19 CNS, greater than 100 µM; in the assay on HCC-2998 colon, 51.9 µM; in the assay on HCT-116 colon, greater than 100 µM; in the assay with NCI-H23 lung, greater than 75.1 µM; with UACC-62 melanoma it was 22.7 µM. Also, the total growth inhibition concentration (TGI) in the assay with UO-31 renal was greater than 32.9 µM; with CAKI-1 renal it was greater than 100 µM; with BT-549 breast, greater than 54.8 µM; in the assay with RPMI-8226 leukemia, 42.2 µM.
Regarding `Cc1ccc(C)c(N2CCN(c3ccncc3N)CC2)c1`, the GI50 in the assay on CCRF-CEM leukemia was 21.5 µM; in the assay on SNB-19 CNS it was 28.8 µM; with HCC-2998 colon, 15.7 µM; with HCT-116 colon, 11.9 µM; in the assay with NCI-H23 lung, 12.1 µM; in the assay on UACC-62 melanoma it was 13.9 µM. Moreover, the GI50 is 17.2 µM in the assay with UO-31 renal, 13.4 µM in the assay on CAKI-1 renal, 21.9 µM in the assay on BT-549 breast and 11.7 µM in the assay with RPMI-8226 leukemia. The TGI with CCRF-CEM leukemia is 94.3 µM; in the assay on SNB-19 CNS, greater than 100 µM; in the assay with HCC-2998 colon it was 31.8 µM; in the assay on HCT-116 colon it was greater than 100 µM; with NCI-H23 lung, 61 µM; with UACC-62 melanoma, 30.8 µM. Further, the TGI is 96.3 µM with UO-31 renal, 83.9 µM in the assay on CAKI-1 renal, greater than 100 µM with BT-549 breast and 35.5 µM with RPMI-8226 leukemia.
As to `COc1ccc2c(c1O)[C@@]13CCCC=C1[C@@H](C2)N(C)CC3`, the TGI in the assay on CCRF-CEM leukemia, in the assay with SNB-19 CNS, in the assay on HCC-2998 colon, with HCT-116 colon, with NCI-H23 lung and with UACC-62 melanoma was greater than 100 µM in each case. The TGI with UO-31 renal, with CAKI-1 renal, with BT-549 breast and with RPMI-8226 leukemia was greater than 100 µM throughout.
Regarding `CCCCCCCCCC(=O)Oc1ccc(/C(=C(/C)c2ccccc2)c2ccc(OCCN3CCCC3)cc2)cc1`, the GI50 in the assay on CCRF-CEM leukemia is 9.51 µM; with SNB-19 CNS, 9.04 µM; in the assay with HCC-2998 colon, 8.66 µM; in the assay with HCT-116 colon it was 8.01 µM; in the assay on NCI-H23 lung it was 7.74 µM; in the assay on UACC-62 melanoma it was 9.18 µM. The GI50 in the assay with UO-31 renal is 6.72 µM; in the assay on CAKI-1 renal, 6.77 µM; in the assay on BT-549 breast, 8.22 µM; in the assay on RPMI-8226 leukemia, 9.13 µM. For the same compound, the TGI was determined as 22.3 µM in the assay on CCRF-CEM leukemia; 17.7 µM with SNB-19 CNS; 17.2 µM in the assay with HCC-2998 colon; 15.7 µM with HCT-116 colon; 16.1 µM in the assay with NCI-H23 lung; 16.8 µM with UACC-62 melanoma. Further, the TGI came out at 14.2 µM in the assay with UO-31 renal, 13.9 µM in the assay on CAKI-1 renal, 16.8 µM with BT-549 breast and 21 µM in the assay with RPMI-8226 leukemia.
